Measured values as given in US20240391978A1, “APOLIPOPROTEIN FUSION PROTEINS FOR CELL-SPECIFIC IMMUNE REGULATION” (BIO-TRIP B.V., priority 2021, published 2024).

Legend:
Type in all cases: cell-based, human
Macrophages [1] = experiment: Seahorse metabolic analyses of IL4-trained cells; conditions: IL4 training on day 0, measured on day 6
Description: Seahorse metabolic analyses: Macrophages were harvested as described above. The cells were resuspended in RPMI+++ and seeded into overnight-calibrated cartridges at 10^5 cells per well. After adhering for 1 hour, the medium was changed to assay medium (Agilent; see below) and the cells were incubated for 1 hour at 37° C. in ambient C02 levels. Oxygen consumption rates (OCR) and extracellular acidification rates (ECAR) were measured as proxies for glycolytic and […] metabolism, using a Seahorse XF Glycolysis Stress Test kit or a Seahorse XF Cell Mito Stress Test kit (both Agilent; measurements performed according to manufacturer's instructions).

Macrophages [2] = experiment: Phagocytosis assay; conditions: IL4-trained cells vs untrained controls; data not shown
Description: Phagocytosis assay: Macrophages were harvested as described above and incubated at 37° C. for 1 hour with FITC-labeled Candida albicans (kindly provided by Dr. Martin Jaeger, Radboudumc) at an MOI of 1:5. The cells were washed 2 times with ice-cold PBA and kept on ice to halt the phagocytosis. The cells were stained for CD45 (table 3) during 30 minutes in the dark at 4° C. Following two washes, trypan blue was added to a final concentration of 0.01% to quench extracellular FITC-Candida. The cells were then acquired on a Cytoflex flow cytometer.
During data analysis, CD45+ events were first selected to remove Candida-only events. Single cells were then gated on as described above and the percentage of Candida-FITC positive macrophages in each sample was calculated.

TNF = experiment: ChIP-qPCR of H3K9me3 at TNF; conditions: IL4-induced trained immunity
Description: Chromatin immunoprecipitation: Macrophages were harvested as described above and resuspended in RPMI+++. The cells were fixed for 10 minutes in 1% methanol-free formaldehyde. The reaction was then quenched for 3 minutes by adding 125 mM glycine. The fixed cells were washed three times with ice-cold PBS and lysed at approximately 15*10^6 cells/ml in lysis buffer (20 mM HEPES pH 7.6, 1% SDS, 1× protease inhibitor cocktail (PIC; Roche)), sonicated (Bioruptor Pico, Diagenode), and centrifuged (10 minutes, 13000 rpm, RT).
Aliquots of chromatin were de-crosslinked in 0.5×TBE buffer (supplemented with 0.5 mg/ml proteinase K (Qiagen)) for 1 hour at 65° C. and run on a 1% agarose gel to confirm target fragment size of 200-800 bp.
The remaining chromatin was divided into ChIP and input samples. ChIP samples were diluted 10× in dilution buffer (16.7 mM Tris pH 8.0, 1.0% Triton, 1.2 mM EDTA, 167 mM NaCl, 1×PIC in MilliQ) and 1 μg of ChIP-grade antibody (Diagenode) was added. The samples were rotated overnight at 4° C.
Magnetic protein A/G beads (Dynabeads) were washed 2 times in dilution buffer supplemented with 0.15% SDS and 0.1% BSA. The washed beads were added to the ChIP samples and rotated at 4° C. for 1 hour. […]

Macrophages [3] = experiment: Macrophage surface marker flow cytometry; conditions: data not shown
Description: Primary monocyte-derived dendritic cell (moDC) generation: For experiments were moDCs were compared to macrophages (untrained control or IL4-trained), moDCs were differentiated as follows. First, negatively selected monocytes were obtained as described above. […] The cells were differentiated until day 6, with one medium refresh on day 3. On day 6, the non-adherent cells were harvested in addition to the adherent cells (as described above). The moDCs and macrophages were then subjected to analysis by flow cytometry as described below.
Macrophage surface marker flow cytometry: Macrophages were harvested as described above and transferred to a v-bottom 96 well plate for staining. The cells were centrifuged at 1500 rpm, 5 minutes, 4° C. The supernatant was removed, and the cells were washed once with 200 μl PBA (PBS pH 7.4, 1% w/v BSA (Sigma)).
Fc-receptors were blocked by incubation in PBS supplemented with 10% human pooled serum for 15 minutes at 4° C. After washing once more, surface markers and viability were stained for in a volume of 50 μl for 30 minutes at 4° C., using the antibodies and viability dye described in table 3.
Following two washes, the cells were resuspended in 150 μl PEA and measured on a Cytoflex flow cytometer (Eeckman Coulter) or ED FACSVerse system (ED Eiosciences). Compensation was performed using VersaComp compensation beads (Eeckman Coulter) for single antibody stains; a mixture of live and heat-killed cells was used for single stains of the viability dye (as per the manufacturer's recommendations). Data analysis was performed in Flowjo (v10.7.1, ED Eiosciences) Our gating strategy was as follows: first, a time gate was used if necessary. Then, single cell events were selected using subsequent FSC-A/SSC-A and FSC-A/FSC-H gates. Dead cells were removed from the analysis by selecting the viability dye-negative population. Geometric mean fluorescence intensities were calculated as a measure of surface marker expression.

## IL4: recombinant human interleukin 4
Macrophages [1]
  FCCP-triggered maximum respiration rate: significantly augmented
  basal glycolysis: trend towards higher basal glycolysis
  baseline respiration rate: significantly augmented
  oligomycin-triggered maximum glycolytic capacity: significant increase
Macrophages [2]
  phagocytosis of heat-killed Candida albicans: slightly less effective at phagocytosing heat-killed Candida albicans than untrained controls
TNF
  H3K9me3 at TNF (AUC analysis of primer pairs): a decrease of H3K9me3
Macrophages [3]; IL4-trained cells vs untrained cells and moDCs
  CD1c expression: slightly more CD1c than untrained cells, but far less than moDCs
Macrophages [3]; IL4 training, day 6
  CD14 expression: strong downregulation
  CD80 expression: marginally increased
  CD200R expression: significantly enhanced
  CD206 expression: significantly enhanced
